According to patent US20260374792A1, “PHENYL-FREE BISCATIONIC QUATERNARY PHOSPHONIUM COMPOUNDS AS ANTIMICROBIAL AGENTS” (priority 2022, published 2026):

How the values were obtained:
A. baumannii [1] = assay: MIC against A. baumannii; assay type: cell-based; conditions: Acinetobacter baumannii, 72 h
Procedure: (§1) The term “minimum inhibitory concentration (MIC)” means the lowest concentration of an antimicrobial agent that will inhibit the visible growth of a microorganism after overnight incubation. MIC values against bacteria, for example, the Gram-positive Staphylococcus aureus and Enterococcus faecalis and the Gram-negative Escherichia coli and Pseudomonas aeruginosa were determined by standard methods. See also P. A. Wayne, Methods for Dilution Antimicrobial Tests for Bacteria that Grow Aerobically; Approved Standard, Ninth Edition, 2012, CLSI Document M07-A9, Vol. 32 No. 2.
(§2) Biological testing procedures were adapted from prior work by Melander and coworkers. For all biological assays, laboratory strains of methicillin-susceptible Staphylococcus aureus MSSA (SH1000), Staphylococcus aureus CA-MRSA (USA300-0114), Staphylococcus aureus HA-MRSA (ATCC 33591), Escherichia coli (MC4100), Enterococcus faecalis (OG1RF), Acinetobacter baumannii (ATCC 17978), were grown with shaking at 37 °C overnight from freezer stocks in 5 mL of the indicated media: SH1000, OG1RF, MC4100, USA300-0114, and ATCC 17978 were grown in BDTM Mueller-Hinton broth (MHB), whereas ATCC 33591 was grown in BDTM tryptic soy broth (TSB). The inoculum were then streaked onto Mueller-Hinton agar (MHA) plates and grown overnight at 37 °C. From the plates, single colonies were selected, diluted into 50 mL of fresh media and grown overnight at 37 °C with shaking for use in the MIC assays. Optical density (OD) measurements were obtained using a SpectraMax iD3 plate reader (Molecular Devices, United States).
(§3) Compounds were serially diluted two-fold from stock solutions (1.0 mM) to yield twelve 100 μL test concentrations, wherein the starting concentration of dimethyl sulfoxide (DMSO) was 2.5%. Overnight S. aureus, E. faecalis, E. coli, A. baumannii, USA300-0114 (CA-MRSA), and ATCC 33591 (HA-MRSA) cultures were diluted to ca. 10^6 CFU/mL in MHB or TSB and regrown to mid-exponential phase, as determined by optical density recorded at 600 nm (OD600). All cultures were then diluted again to ca. 10^6 CFU/mL and 100 μL were inoculated into each well of a U-bottom 96-well plate (Corning, 351177) containing 100 μL of compound solution. Plates were incubated statically at 37 °C for 72 hours upon which wells were evaluated visually for bacterial growth. The MIC was determined as the lowest concentration of compound resulting in no bacterial growth visible to the naked eye, based on the highest value in three independent experiments. Aqueous DMSO controls were conducted as appropriate for each compound.
(§4) The prepared library of biscationic amphiphilic compounds was assessed for performance as antibacterial disinfectants by determining the minimum inhibitory concentration (MIC) for each against a panel of bacteria. The bacteria selected for the study were chosen to evaluate the broad spectrum antimicrobial performance of the QPCs, and therefore, included both Gram-positive and Gram-negative bacterial strains, including those with known antimicrobial resistance mechanisms. These bacteria include the Gram-positive strains of methicillin-susceptible Staphylococcus aureus [MSSA; SH1000], community-acquired methicillin-resistant Staphylococcus aureus [CA-MRSA; USA 300-0114], hospital-acquired methicillin-resistant Staphylococcus aureus [HA-MRSA; ATCC 33591] and the […], Escherichia coli [MC4100], Acinetobacter baumannii [ATCC 17498] and Pseudomonas aeruginosa [PAO1].

E. coli (MC4100) = assay: MIC against E. coli; assay type: cell-based; conditions: Escherichia coli, 72 hours, 37 °C
Procedure: as §1, §2, §3, §4

HA-MRSA (ATCC 33591) = assay: MIC against hospital-acquired methicillin-resistant S. aureus (HA-MRSA); assay type: cell-based; conditions: Staphylococcus aureus, 72 h
Procedure: as §1, §2, §3, §4

P. aeruginosa (PAO1) = assay: MIC against P. aeruginosa; assay type: cell-based; conditions: Pseudomonas aeruginosa; P. aeruginosa (PAO1); 72 hours, 37 °C; read-out: MIC
Procedure: as §1, §2, §3, §4

red blood cells = assay: Red Blood Cell (RBC) Lysis Assay (lysis20); assay type: cell-based, sheep; conditions: for Lysis20: concentration inducing 20% RBC lysis, sheep blood, 1 hour, 37 °C
Procedure: RBC lysis assays were performed on mechanically defibrinated sheep blood (Hemostat Labs: DSB030). An aliquot of 1.5 mL blood was placed into a microcentrifuge tube and centrifuged at 3,800 rpm for ten minutes. The supernatant was removed, and the cells were resuspended with 1 mL of phosphate-buffered saline (PBS). The suspension was centrifuged as described above, the supernatant was removed, and cells were resuspended 4 additional times in 1 mL PBS. The final cell suspension was diluted twentyfold with PBS. Compounds were serially diluted with PBS two-fold from stock solutions (1.0 mM) to yield 100 μL of twelve test concentrations on a flat-bottom 96-well plate (Corning, 351172), wherein the starting concentration of DMSO was 2.5%. To each of the wells, 100 μL of the twentyfold suspension dilution was then inoculated. TritonX (1% by volume) served as a positive control (100% lysis marker) and sterile PBS served as a negative control (0% lysis marker). Samples were then placed in an incubator at 37 °C and shaken at 200 rpm. After 1 hour, the samples were centrifuged at 3,800 rpm for ten minutes. The absorbance of the supernatant was measured with a UV spectrometer at a 540 nm wavelength. The concentration inducing 20% RBC lysis was then calculated for each compound based upon the absorbances of the TritonX and PBS controls. Aqueous DMSO controls were conducted as appropriate for each compound.
The potential cytotoxicity of the compounds was also considered with the evaluation of hemolysis (lysis20) assays with 20% lysis of red blood cells serving as an indicator of potentially toxic compounds. Finally, the bioactivity of these compounds were benchmarked against a commercial benzalkonium chloride source (BAC; 70% benzyldimethyldodecylammonium chloride, and 30% benzyldimethyltetradecylammonium chloride) as well as some previously reported disinfectant compounds from the inventors' groups; included were bisQPC ^PhP6P-10,10 as well as ^PhP2P-10,10 and 12(2)12. A detailed description of the experimental procedures used to evaluate bioactivity and hemolysis assays are described above.

E. faecalis (OG1RF) = assay: MIC against E. faecalis; assay type: cell-based; conditions: Enterococcus faecalis, 72 h
Procedure: as §1, §2, §3, §4

CA-MRSA (USA300-0114) = assay: MIC against community-acquired methicillin-resistant S. aureus (CA-MRSA); assay type: cell-based; conditions: Staphylococcus aureus, 72 h
Procedure: as §1, §2, §3, §4

panel of bacteria [2] = assay: MIC across the panel of bacteria (Gram-positive and Gram-negative); assay type: cell-based; conditions: for antimicrobial activity / bioactivity (in words): over the bacterial panel; for MIC: read-out: MIC values
Procedure: as §1, §2, §3, §4

MSSA (SH1000) = assay: MIC against methicillin-susceptible S. aureus (MSSA); assay type: cell-based; conditions: Staphylococcus aureus; MSSA (SH1000); 72 hours, 37 °C; read-out: MIC
Procedure: as §1, §2, §3, §4

E. faecalis = assay: MBEC, biofilm eradication, E. faecalis; assay type: cell-based, Enterococcus faecalis; conditions: 24 hours, 37 °C, TSB
Procedure: (§5) A regrowth assay was used to establish the MBEC of a compound to evaluate the antibiofilm activity.
(§6) Biofilm eradication experiments were performed using a pegged-lid microtiter plate assay to determine the MBEC values for compounds of interest, as previously described. […] Sci. Rep. 2017, 7, 2003; and Raval, Y. S., Flurin, L., Mohamed, A., Greenwood-Quaintance, K. E., Beyenal, H., & Patel, R. In Vitro Activity of Hydrogen Peroxide and Hypochlorous Acid Generated by Electrochemical Scaffolds Against Planktonic and Biofilm Bacteria. Antimicrob Agents Chemother. 2021, 65, e01966-20. Briefly, […] of mid-log phase culture diluted to ca. 10^6 CFU/mL in tryptic soy broth (TSB) was added to wells of plat-bottom 96-well plates (Thermo Scientific, 266120) and covered with 96-pegged lid (Thermo Scientific, 445497). Plates were incubated to establish bacterial biofilms after incubation at 37 °C for 24 hours. The pegged lid was then removed, washed with PBS, and transferred to another 96-well plate containing 2-fold serial dilutions of the test compounds (the “challenge plate”). The total volume in each well was […], comprising of […] of compound diluted in water/DMSO, with a starting DMSO concentration of 2.5%, and […] of TSB. Plates were incubated statically at 37 °C for 24 hours. Next, the pegged lids were transferred to a fresh 96-well plate containing […] of TSB and incubated overnight at 37 °C. MBEC values were determined as the lowest test concentration that resulted eradicated biofilm (i.e., wells displaying no turbidity in the final plate).

HA-MRSA = assay: MBEC, biofilm eradication, HA-MRSA; assay type: cell-based, Staphylococcus aureus; conditions: 24 hours, 37 °C, TSB
Procedure: as §5, §6

A. baumannii [3] = assay: MBEC, biofilm eradication, A. baumannii; assay type: cell-based, Acinetobacter baumannii; conditions: 24 hours, 37 °C, TSB
Procedure: as §5, §6

P. aeruginosa = assay: MBEC, biofilm eradication, P. aeruginosa; assay type: cell-based, Pseudomonas aeruginosa; conditions: 24 hours, 37 °C, TSB
Procedure: as §5, §6

panel of bacteria [4] = conditions: Gram-positive and Gram-negative pathogens; earlier generation compound; cited from earlier work

Row | SMILES | MIC (A. baumannii [1]) [µM] | MIC (E. coli (MC4100)) [µM] | MIC (HA-MRSA (ATCC 33591)) [µM] | MIC (P. aeruginosa (PAO1)) [µM] | Lysis20 (red blood cells) [µM] | MIC (E. faecalis (OG1RF)) [µM] | MIC (CA-MRSA (USA300-0114)) [µM] | antimicrobial activity / bioactivity (in words) (panel of bacteria [2]) | MIC (panel of bacteria [2]) [µM] | MIC (MSSA (SH1000)) [µM] | hemolysis (lysis20) (in words) (red blood cells) | MBEC (E. faecalis) [µM] | MBEC (HA-MRSA) [µM] | MBEC (A. baumannii [3]) [µM] | MBEC (P. aeruginosa) [µM] | antimicrobial efficacy (in words, earlier work) (panel of bacteria [4])
1 | CCCCCCCCCCC[P+](CC[P+](CCCCCCCCCCC)(C1CCCCC1)C1CCCCC1)(C1CCCCC1)C1CCCCC1 [^CyP2P-11,11] | 4 | 4 | 1 | 8 | 8 | 8 | 1 | single-digit micromolar activity | 1 to 8 | 1 |  |  |  |  |  | 
2 | CCCCCCCCC[P+](CC[P+](CCCCCCCCC)(C1CCCCC1)C1CCCCC1)(C1CCCCC1)C1CCCCC1 [^CyP2P-9,9] | 16 | 16 | 2 | 32 | 125 | 16 | 1 |  | 16 | 1 | diminished hemolysis over the commercial BAC control |  |  |  |  | 
3 | CCCCCCCCCC[N+](C)(C)CCCCCCCCCC.[Cl-] [DDAC, didecyldimethylammonium chloride] |  |  |  |  |  |  |  |  |  |  |  | 16 | 16 | 8 | >250 | 
4 | CCCCCCCCCC[P+](CCCCCC[P+](CCCCCCCCCC)(c1ccccc1)c1ccccc1)(c1ccccc1)c1ccccc1 [^PhP6P-10,10, reference compound] | 4 | 2 | 1 | 2 | 8 | 2 | 1 |  | 1 to 4 | 1 |  |  |  |  |  | high degree of antimicrobial efficacy
5 | CCCCCCCCCCCC[P+](CC)(CC)CC[P+](CC)(CC)CCCCCCCCCCCC [^EtP2P-12,12] | 2 | 2 | 1 | 8 | 8 | 16 | 1 | single-digit micromolar activity with just one exception |  | 1 |  |  |  |  |  | 
